The numbers were not newly measured in patent US20100255105A1, “EXTENDED RELEASE PHARMACEUTICAL COMPOSITION COMPRISING METOPROLOL SUCCINATE” (ZAKLADY FARMACEUTYCZNE POLPHARMA S.A., priority 2009, published 2010), which cites them from elsewhere.

Each structure is given as a SMILES string.

The conditions of this series: water at 37° C.

As to `COCCc1ccc(OCC(O)CNC(C)C)cc1` (stereo not shown) [metoprolol succinate], the solubility in water is listed as 276 mg/mL.
